Data: article PMC8427973, “Regulation of the HTRA2 Protease Activity by an Inhibitory Antibody-Derived Peptide Ligand and the Influence on HTRA2-Specific Protein Interaction Networks in Retinal Tissues” (Biomedicines, 2021)
Values belong to the molecule of their own block, whether it stands above or below them.

Legend:
HTRA2-PDZ domain = system: HTRA2-PDZ domain; parameters: method as in PMID 23457469; conditions: cited from earlier work
[1] = biological target: T1, recombinant HTRA2 protein (Homo sapiens, UniProt O43464); test: HTRA2 protease activity assay with fluorescent H2-optimal substrate; assay type: biochemical; conditions: for Inhibitory effect on HTRA2 after targeted alanine substitution in the CDR binding motif (mutational analysis): protease activity assay, Figure S1; for Increase of the average degradation rate of the optimal substrate H2 with respect to the untreated positive control: 100 nM HTRA2, 10 µM substrate, RT; for Average degradation rate of the optimal substrate H2 by HTRA2 (enzymatic reaction rate per minute): 100 nM recombinant HTRA2, 10 µM H2-optimal substrate, pH 8.0, RT, fluorescence ex 320 nm / em 405 nm, untreated positive control 229 U/min
T1 construct: 6xHis (C); purchased Novoprotein Scientific INC., Summit, NJ, USA
T1 sequence (O43464 134-458): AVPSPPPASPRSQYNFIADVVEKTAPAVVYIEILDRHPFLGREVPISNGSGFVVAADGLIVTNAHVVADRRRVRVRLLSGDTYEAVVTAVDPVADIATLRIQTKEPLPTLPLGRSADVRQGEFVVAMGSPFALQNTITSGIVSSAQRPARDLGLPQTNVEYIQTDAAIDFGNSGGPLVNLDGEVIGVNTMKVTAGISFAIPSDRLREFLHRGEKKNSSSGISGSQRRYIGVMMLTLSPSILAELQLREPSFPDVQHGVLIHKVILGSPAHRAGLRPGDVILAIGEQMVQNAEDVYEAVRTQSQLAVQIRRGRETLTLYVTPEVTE
Protocol: The HTRA2 protease activity assay was performed as described by Martins et al. (2003), but with some slight modifications. The experiment was performed with 100 nM recombinant HTRA2 protein (Novoprotein Scientific INC., Summit, NJ, USA) in a protease assay buffer (50 mM tris(hydroxymethyl)-aminomethane (TRIS), 0.5 mM ethylenediaminetetraacetic acid (EDTA), and 1 mM dithiothreitol (DTT), pH 8.0) containing 10 µM H2-optimal substrate (Innovagen AB, Lund, Sweden). The H2-optimal substrate is commonly used to measure the protease activity of HTRA2 and consists of a structural quencher and a fluorophore unit. The cleavage of the substrate leads to the disruption of the quencher/fluorophore complex and the degradation rate can be measured by fluorescence. The different sample groups were treated with 50 µM PDZ-Opt, 50 µM PDZ-Sub, 50 µM synthetic CDR1 peptide, or 30 µM UCF-101, respectively. The drug compound UCF-101 is an inhibitor of the catalytic domain of HTRA2 and was purchased from Sigma Aldrich (Darmstadt, Germany). The concentrations of the peptide ligands for the HTRA2 protease activity assay were chosen from the previous publication. The concentration of UCF-101 was determined to be optimal from the preliminary experiments. In addition, a positive control containing only 100 nM recombinant HTRA2 and a negative control (only protease assay buffer) were included in this experiment. All of the sample groups were incubated for 1 h at 37 °C to determine the maximum degradation rate of HTRA2. For the analysis of the enzymatic reaction rate of HTRA2, all samples were measured subsequently after the addition of the 10 µM H2-optimal substrate at RT. Fluorescence was monitored on a Spark® 10 M multimode microplate-reader (Tecan Trading AG, Männedorf, Switzerland) with an excitation at 320 nm and a fluorescence emission at 405 nm. The fluorescence background of the substrate was substracted from the fluorescence intensities of the different the sample groups to normalize the data.
To determine the proteolytic activity of HTRA2 we used the fluorescent H2 optimal substrate developed by Martins et al. (2003). The optimal substrate H2 encoded a short specific amino acid sequence, which is preferentially cleaved by HTRA2, and was also modified with a fluorescent dye and quencher. […] Under physiological conditions, the proteolytic activity of HTRA2 is suppressed by the C-terminal PDZ domain, which blocks the access of potential substrates to the catalytic domain by steric hindrance. The binding of short hydrophobic polypeptides to the allosteric PDZ domain can induce specific conformational changes of HTRA2 and are able to regulate its proteolytic activity. Therefore, Martins et al. (2003) specifically designed the peptide ligands PDZ-Opt (GQYYFV) and PDZ-Sub (GGIRRV), which are known to increase the proteolytic activity of HTRA2 in this assay.

[2] = biological target: Serine protease HTRA2, mitochondrial (recombinant, 6xHis-tag) (UniProt O43464)

Molecule: AGYTGFV
Glide score for binding to the HTRA2-PDZ domain (HTRA2-PDZ domain): -7.903 kcal/mol

Molecule: ASGYTATNYGLSWVR [F(6), CDR peptide for the mutational analysis, alanine at position 6]
Inhibitory effect on HTRA2 after targeted alanine substitution in the CDR binding motif (mutational analysis) [1]: particular important presence of Y(4) and F(6) for the inhibitory effect on HTRA2

Molecule: YVWAGSTLSRTGNFY [scrambled CDR, scrambled CDR peptide analog]
Maximum degradation rate of the H2 optimal substrate by HTRA2 ([1]; 50 µM peptide, 1 h at 37 °C, n = 3, Figure 1C): unable to induce the suppression of the HTRA2 protease activity

Increase of the average degradation rate of the optimal substrate H2 with respect to the untreated positive control ([1]; 50 µM peptide): up to 50%
Average degradation rate of the optimal substrate H2 by HTRA2 (enzymatic reaction rate per minute) ([1]; 50 µM peptide): 345 U/min
Molecule: GQYYFV [PDZ-Opt, reference compound]

Molecule: ASGATFTNYGLSWVR [Y(4), CDR peptide for the mutational analysis, alanine at position 4]
Inhibitory effect on HTRA2 after targeted alanine substitution in the CDR binding motif (mutational analysis) [1]: particular important presence of Y(4) and F(6) for the inhibitory effect on HTRA2

Increase of the average degradation rate of the optimal substrate H2 with respect to the untreated positive control ([1]; 50 µM peptide): up to 18%
Average degradation rate of the optimal substrate H2 by HTRA2 (enzymatic reaction rate per minute) ([1]; 50 µM peptide): 272 U/min
Molecule: GGIRRV [PDZ-Sub, a peptide generated by HTRA2 auto-proteolysis, reference compound]

Molecule: ASGYAFTNYGLSWVR [T(5) to A(5), CDR peptide for the mutational analysis, alanine at position 5]
Inhibitory effect on HTRA2 after targeted alanine substitution in the CDR binding motif (mutational analysis) [1]: significantly strengthened the inhibitory effect

average degradation rate of the fluorescent H2 optimal substrate (10 µM) by 100 nM HTRA2 with 50 µM PDZ-Opt; untreated HTRA2 229 U/min (increase up to 50%) [2]: 345 U/min
Molecule: GQYYFV [PDZ-Opt]

average degradation rate of the fluorescent H2 optimal substrate (10 µM) by 100 nM HTRA2 with 50 µM PDZ-Sub; untreated HTRA2 229 U/min (increase up to 18%) [2]: 272 U/min
Molecule: GGIRRV [PDZ-Sub]
